Laboratory results taken from patent publication US11453640B2, “Small molecules for disrupting the super elongation complex and inhibiting transcription elongation for cancer therapy” (NORTHWESTERN UNIVERSITY, priority 2018, dated 2022).

Test system: heat shock inducible genes in HCT-116 cells
Test: Heat shock induction in HCT-116 cells (Pol II ChIP-seq)
Format: cell-based, human
Conditions: 5 hr pretreatment, 42° C. 1 hr
Method: FIG. 5. SEC inhibitors block transcription elongation in SEC-dependent rapid response models. (A-B) Genome browser tracks of Pol II ChIP-seq at the FOS, HSPD1 and HSPE1 genes after 1 hr heat shock of HCT-116 cells treated with vehicle (DMSO) or the indicated SEC inhibitors. HCT-116 cells were pretreated with inhibitors for 5 hr at 37° C. before exchanging medium with conditioned 42° C. medium. Dark and light colors indicate the 37 and 42° C. conditions, respectively. (C) Genome-wide identification of heat shock-induced genes with fold change of reads per million in gene bodies and pausing index. Red dots are the 136 heat shock-induced genes according to Pol II signals (fold change of reads per million in gene bodies >1.5 and pausing index decreased >1.5-fold in the DMSO-treated condition). […] Box plot analysis depicts the log2 fold changes of reads per million in gene bodies (E) (y axis) after heat shock with pretreatment of vehicle or SEC inhibitors. […]
Chromatin Immunoprecipitation Sequencing. […] ChIP-seq reads were aligned to the Drosophila genome (UCSC dm3) or human genome (UCSC hgl9). Alignments were processed with Bowtie version 1.1.2, allowing only uniquely mapping reads with up to two mismatches within the 50 bp read. The resulting reads were extended to 150 bp toward the interior of the sequenced fragment and normalized to total reads aligned (reads per million, r.p.m.). […]

## COc1cccc(C(=O)CC(=O)C(=O)Nc2cc(Cl)ccc2C)c1 [KL-1, N-(5-chloro-2-methylphenyl)-4-oxo-4-(3-methoxyphenyl)-2-oxobutanamide]
  induction of heat shock inducible genes: block induction of known heat shock inducible genes
